How the values were obtained:
Format in all cases: biochemical
[1] = biological target: T1, Cynomolgus Monkey Testicular C17-20 Lyase (Macaca fascicularis, UniProt Q2XVA1); experiment: Screen for time-dependent inhibition / inhibition of cynomolgus monkey testicular C17-20 lyase (microsomal preparation)
T1 construct: Microsomes are isolated from human or cynomolgus monkey tissue; from tissue; host or cells: cynomolgus monkey testis, microsomes
T1 sequence (Q2XVA1 1-508): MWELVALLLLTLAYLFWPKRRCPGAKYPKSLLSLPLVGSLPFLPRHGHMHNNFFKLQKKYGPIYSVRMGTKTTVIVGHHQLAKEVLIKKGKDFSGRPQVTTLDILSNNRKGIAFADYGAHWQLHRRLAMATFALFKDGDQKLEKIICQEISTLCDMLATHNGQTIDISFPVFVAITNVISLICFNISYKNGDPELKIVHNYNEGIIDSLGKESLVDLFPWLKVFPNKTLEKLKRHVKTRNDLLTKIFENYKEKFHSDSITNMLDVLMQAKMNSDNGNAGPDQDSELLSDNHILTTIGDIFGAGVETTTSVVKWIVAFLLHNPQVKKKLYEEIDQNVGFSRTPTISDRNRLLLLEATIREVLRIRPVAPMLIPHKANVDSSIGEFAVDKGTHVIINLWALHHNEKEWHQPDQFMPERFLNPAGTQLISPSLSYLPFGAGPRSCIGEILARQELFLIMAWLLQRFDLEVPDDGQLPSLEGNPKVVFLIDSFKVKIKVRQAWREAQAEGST
Experimental: (§1) Utilizing an in vitro assay, the activity of the compounds of formulas (I) and (II) as inhibitors of steroid C17-20 lyase are established using microsomal preparations of the enzyme from human or cynomolgus monkey testicular tissue. Human testes were acquired from therapeutic orchiectomies. Microsomes are isolated from human or cynomolgus monkey tissue. The compound to be tested is dissolved in dimethyl sulfoxide and diluted in 0.05M potassium phosphate buffer, pH 7.4, to give the desired concentrations of test compound. Assays contain an NADPH regenerating system comprised of 1 mM NADPH, 5 mM glucose-6-phosphate, 1 IU/mL glucose-6-phosphate dehydrogenase and microsomal protein in a total volume of 0.2 mL. Control assays contain all components, including dimethyl sulfoxide, but no test compound. All assays are performed in duplicate. For determination of time dependent C17-20 lyase inactivation, the test compound is incubated with 20 to 62 μg/mL microsomal protein, buffer and the NADPH regenerating system described above at 34° C. for 0 or 40 minutes. Aliquots of 180 μL are then removed and assayed for enzyme activity by addition to 7-^3 H-17α-hydroxypregnenolone (11.2 mCi/mmole; 0.2 μCi per assay) plus unlabeled 17α-hydroxypregnenolone to give a total substrate concentration of 1.0 μM or 0.3 μM per assay and are subsequently incubated at 34° C. for 6 minutes. For determination of reversible inhibition by the test compound, the reaction is initiated by the addition of substrate, 7-^3 H-17α-hydroxypregnenolone (11.2 mCi/mmole; 0.20 μCi per assay) plus unlabeled 17α-hydroxypregnenolone to yield a final concentration of 0.3 μM (=Km), to the other assay components. The complete assay is incubated at 34° C. for 6 minutes. Each assay is terminated by addition of 5 mL of chloroform/methanol (2:1). Carrier steroids representing substrates and products (17α-hydroxypregnenolone, dehydroepiandrosterone, and androst-5-ene-3β,17β-diol and 0.8 mL of distilled, deionized water are also added at this time. The steroids are extracted by the method of Moore and Wilson (Methods in Enzymol., eds. O'Malley, B. W. and Hardman, J. G. 36, 1975, pp.466-474). The organic phase containing the steroids is evaporated using nitrogen gas, the residue is dissolved in 18% tetrahydrofuran (v/v) in hexane and the steroids are separated by HPLC on an Si60 (5 μm) column (250×4 mm) using a gradient of 18-22% tetrahydrofuran (v/v) in hexane. Radioactivity in the steroid peaks is measured using a Radiometric Model HS or Model A515 Flo-One detector.
(§2) The enzyme activity for each assay is calculated from the percent conversion of substrate to products, and the results are expressed as percent inhibition of control.

[2] = biological target: T1, Cynomolgus Monkey Testicular C17-20 Lyase; experiment: Screen for inhibition of cynomolgus monkey testicular C17-20 lyase by compounds of formula (II)
Experimental: as §1, §2

[3] = biological target: T2, Human Testicular C17-20 Lyase (Homo sapiens, UniProt P05093); experiment: Screen for time-dependent inhibition of human testicular C17-20 lyase (microsomal preparation)
T2 construct: Microsomes are isolated from human or cynomolgus monkey tissue; from tissue; host or cells: human testes from therapeutic orchiectomies, microsomes
T2 sequence (P05093 1-508): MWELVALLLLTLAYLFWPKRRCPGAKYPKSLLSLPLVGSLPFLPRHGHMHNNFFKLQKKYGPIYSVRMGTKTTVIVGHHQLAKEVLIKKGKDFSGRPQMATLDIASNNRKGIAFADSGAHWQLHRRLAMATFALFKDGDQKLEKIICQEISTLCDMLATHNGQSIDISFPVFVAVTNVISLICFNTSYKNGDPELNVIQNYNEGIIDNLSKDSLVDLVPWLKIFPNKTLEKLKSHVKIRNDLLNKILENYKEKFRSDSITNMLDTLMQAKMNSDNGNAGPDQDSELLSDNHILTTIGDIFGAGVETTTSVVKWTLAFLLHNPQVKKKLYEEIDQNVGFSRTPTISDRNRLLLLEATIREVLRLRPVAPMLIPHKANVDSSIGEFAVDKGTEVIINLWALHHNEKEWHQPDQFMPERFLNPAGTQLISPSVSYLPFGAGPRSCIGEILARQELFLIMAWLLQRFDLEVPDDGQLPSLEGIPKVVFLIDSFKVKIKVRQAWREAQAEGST
Experimental: as §1, §2

C[C@]12CCC(=O)CC1=CC[C@@H]1[C@@H]2CC[C@]2(C)C(c3csc(N)n3)=CC[C@@H]12 [17-(2-amino-4-thiazolyl)-androsta-5,16-dien-3-one]
inhibition at 1 µM ([1]; preincubation 0 min): 66% | inhibition at 10 µM ([1]; preincubation 0 min): 92%

C[C@]12CC[C@H](O)CC1=CC[C@@H]1[C@@H]2CC[C@]2(C)C(c3ccco3)=CC[C@@H]12 [17-(2-furanyl)androsta-5,16-dien-3β-ol, (3β)-17-(2-furanyl)-androsta-5,16-dien-3-ol]
inhibition at 0.1 µM [2]: 10% | inhibition at 1 µM [2]: 72%

C[C@]12CC[C@H](O)CC1=CC[C@@H]1[C@@H]2CC[C@]2(C)C(c3cccs3)=CC[C@@H]12 [17-(2-thienyl)androsta-5,16-dien-3β-ol, (3β)-17-(2-thienyl)-androsta-5,16-dien-3-ol]
inhibition at 0.1 µM [2]: 43% | inhibition at 1 µM [2]: 75%

C[C@]12CC[C@H](O)CC1=CC[C@@H]1[C@@H]2CC[C@]2(C)C(c3ccoc3)=CC[C@@H]12 [17-(3-furanyl)androsta-5,16-dien-3β-ol, (3β)-17-(3-furanyl)-androsta-5,16-dien-3-ol]
inhibition at 0.1 µM [2]: 53% | inhibition at 1 µM [2]: 91%

C[C@]12CC[C@H](O)CC1=CC[C@@H]1[C@@H]2CC[C@]2(C)C(c3ccsc3)=CC[C@@H]12 [17-(3-thienyl)androsta-5,16-dien-3β-ol, (3β)-17-(3-thienyl)-androsta-5,16-dien-3-ol]
inhibition at 0.1 µM [2]: 21% | inhibition at 1 µM [2]: 42%

C[C@]12CC[C@H](O)CC1=CC[C@@H]1[C@@H]2CC[C@]2(C)C(c3csc(N)n3)=CC[C@@H]12 [(3β)-17-(2-amino-4-thiazolyl)-androsta-5,16-dien-3-ol.HBr.CH3 CH2 OH]
inhibition at 1 µM ([3]; preincubation 0 min): 44% | inhibition at 10 µM ([3]; preincubation 0 min): 62% | inhibition at 1 µM ([3]; preincubation 40 min): 32% | inhibition at 10 µM ([3]; preincubation 40 min): 29%

CNc1nc(C2=CC[C@H]3[C@@H]4CC=C5C[C@@H](O)CC[C@]5(C)[C@H]4CC[C@]23C)cs1 [(3β)-17-[2-(methylamino)-4-thiazolyl]-androsta-5,16-dien-3-ol.HBr]
inhibition at 1 µM ([1]; preincubation 0 min): 28% | inhibition at 10 µM ([1]; preincubation 0 min): 40% | inhibition at 1 µM ([1]; preincubation 40 min): 26% | inhibition at 10 µM ([1]; preincubation 40 min): 80%

Source: patent US5677293A, “16 unsaturated C17 heterocyclic steroids useful as steroid C17-20 lyase inhibitors” (Merrell Pharmaceuticals Inc., priority 1996, dated 1997)
